Data: patent US9365533B2, “Coumarin derivative” (NIPPON ZOKI PHARMACEUTICAL CO., LTD., priority 2012, dated 2016)
Where a name gives a salt, the structure may show the parent alone.

Assays:
[1] = tested on: cartilage pieces of bovine metacarpophalangeal joint; assay: Suppressive action to cartilage destruction: release of sGAG induced by IL-1α from cartilage pieces; type: cell-based; conditions: 25 μmol/L test substance, 2 h pretreatment, human recombinant IL-1α 3 ng/mL, 4 days at 37° C.; for inhibition at 25 µM: Bos taurus, 96 h, read-out: sGAG Releasing Suppressive Rate (%)
Protocol: Evaluation of Suppressive Action to Cartilage Destruction [Release of sGAG Induced by Interleukin-1α (IL-1α)]
(1) Incubation of Cartilage Pieces
Each four cartilage pieces of bovine metacarpophalangeal joint were placed in each well of a 48-well plate and pretreated for 2 hours with a basal medium [D-MEM (Dulbecco's Modified Eagle Medium) containing 2 mmol/L of glutamine, 25 mmol/L of Hepes, 100 μg/mL of streptomycin, 100 IU/mL of penicillin and 5.6 μg/mL of amphotericin B] containing 25 μmol/L of a test substance. Human recombinant IL-1α (3 ng/mL) was added thereto followed by incubating at 37° C. for 4 days in a CO2 incubator set at 5 vol % of CO2. Culture supernatant and cartilage pieces were recovered and stored by freezing until the measurement for each of them.
(2) Measurement of the Amount of sGAG and Calculation of the Suppressive Rate for the Release of sGAG
The recovered cartilage pieces were treated with a papain solution [containing 1 mg/mL of papain, 100 mmol/L of sodium phosphate (pH 6.5), 5 mmol/L of L-cysteine and 5 mmol/L of disodium ethylenediaminetetraacetate (EDTA)] at 65° C. for about 16 hours to solubilize. Amount of sGAG in the resulting extract was measured using an sGAG Alcian Blue Binding Kit (Wieslab AB) which is a quantitative kit to which a Alcian blue staining protocol is applied. sGAG in the culture supernatant after the incubation was measured without subjecting to a papain treatment. Each releasing rate of sGAG was determined by the following formula to calculate the suppressive rate for the release of sGAG. Releasing rate (%) of sGAG={(Total sGAG amount in the culture supernatant)/[(Total sGAG amount in the culture supernatant)+(Total sGAG amount in the cartilage pieces)]}×100 Suppressive rate (%) for release of sGAG={[Releasing rate of sGAG (IL-1α stimulation)−Releasing rate of sGAG (Test substance)]/[Releasing rate of sGAG (IL-1α stimulation)−Releasing rate of sGAG (Non-stimulation)]}×100

HFLS-OA cells = assay: Suppressive action to TNF-α-induced proliferation of synovial cells (HFLS-OA), BrdU ELISA; type: cell-based; conditions: 200 μmol/L test substance, human recombinant TNF-α 10 ng/mL, 5 days, BrdU incorporation increase by TNF-α = 100%; for activity at 200 µM: Synovial cell, 120 h, read-out: Synovial Cell Proliferation Rate (%)
Protocol: Evaluation of Suppressive Action to Cell Proliferation of Synovial Cells (HFLS-OA) Derived from Tissues of Human Osteoarthritis
(1) Incubation of HFLS-OA Cells
HFLS-OA cells were sown onto a 96-well plate so as to make them 10^4 cells/well/100 μL in a D-MEM containing 2 vol % of fetal bovine serum (FBS) and incubated for 24 hours. A test substance (200 μmol/L) and human recombinant TNF-α (10 ng/mL) were added thereto followed by incubating for 5 days.
(2) Measurement of Action to HFLS-OA Cell Proliferation
A kit [Cell Proliferation ELISA, BrdU (colorimetric) (Roche Diagnostics)] was used and measurement was conducted according to the protocol attached to the kit. HFLS-OA cells were incubated for 3 days and 10 μL of 5-bromo-2′-deoxyuridine (BrdU) dissolved in a phosphate buffered saline (PBS) (100 μmol/L, pH 7.4) was added to each well followed by incubating for 48 hours more. After the culture supernatant was removed from each well, 200 μL/well of an immobilization/denaturation solution was added thereto and the mixture was allowed to stand for 30 minutes whereby immobilization of the cells and denaturation of DNA were conducted. After the immobilization/denaturation solution was completely removed, 100 μL of a peroxidase-labeled anti-BrdU antibody solution was added thereto and the mixture was made to react at room temperature for 90 minutes. After washing with PBS, 100 μL of a substrate liquid (tetramethylbenzidine) was added to each well and the absorbance was measured. A cell proliferation rate upon addition of each test substance was calculated where an increase in incorporation of BrdU upon addition of TNF-α was defined as 100% of cell proliferation rate.

SMILES	inhibition at 25 µM [1] [%]	activity at 200 µM (HFLS-OA cells) [%]	sGAG Releasing Suppressive Rate (%) [1] [%]	Synovial Cell Proliferation Rate (%) (HFLS-OA cells)
O=c1oc2c(OS(=O)(=O)c3ccccc3)cccc2cc1NS(=O)(=O)c1ccc(C(F)(F)F)cc1 [Compound 27, 2-Oxo-3-[[4-(trifluoromethyl)phenyl]sulfonylamino]-chromen-8-yl benzenesulfonate]	162	-36.3		
O=c1oc2c(OS(=O)(=O)c3ccccc3)cccc2cc1NS(=O)(=O)c1cccc(C(F)(F)F)c1 [Compound 28, 2-Oxo-3-[[3-(trifluoromethyl)phenyl]sulfonylamino]-chromen-8-yl benzenesulfonate]	140	-33.7		
O=c1oc2c(OS(=O)(=O)c3ccccc3)cccc2cc1NS(=O)(=O)c1ccc(Cl)cc1 [Compound 29, 3-[(4-Chlorophenyl)sulfonylamino]-2-oxochromen-8-yl benzenesulfonate]	121	-31.3		
O=c1oc2c(OS(=O)(=O)c3ccccc3)cccc2cc1NS(=O)(=O)c1ccc(-c2ccccc2)cc1 [Compound 30, 2-Oxo-3-[(4-phenylphenyl)sulfonylamino]chromen-8-yl benzenesulfonate]	141	-33		
O=c1oc2c(OS(=O)(=O)c3ccccc3)cccc2cc1NS(=O)(=O)c1cccc(Br)c1 [Compound 31, 3-[(3-Bromophenyl)sulfonylamino]-2-oxochromen-8-yl benzenesulfonate]	135	-37.1		
O=c1oc2c(OS(=O)(=O)c3cccc(Br)c3)cccc2cc1NS(=O)(=O)c1cccc(Br)c1 [Compound 32, 3-[(3-Bromophenyl)sulfonylamino]-2-oxochromen-8-yl 3-bromobenzenesulfonate]	202	-41.1		
O=c1oc2c(OS(=O)(=O)c3cccc(C(F)(F)F)c3)cccc2cc1NS(=O)(=O)c1cccc(C(F)(F)F)c1 [Compound 33, 2-Oxo-3-[[3-(trifluoromethyl)phenyl]sulfonylamino]-chromen-8-yl 3-(trifluoromethyl)benzenesulfonate]	147	-40		
O=c1oc2c(OS(=O)(=O)c3cccc(Br)c3)cccc2cc1NS(=O)(=O)c1ccccc1 [Compound 34, 3-(Benzenesulfonamide)-2-oxochromen-8-yl 3-bromobenzenesulfonate]			109	−31.6
O=c1oc2c(OS(=O)(=O)c3cccc(C(F)(F)F)c3)cccc2cc1NS(=O)(=O)c1ccccc1 [Compound 35, 3-(Benzenesulfonamide)-2-oxochromen-8-yl 3-(trifluoromethyl)benzenesulfonate]			103	−31.5
O=c1oc2c(OS(=O)(=O)c3cccnc3)cccc2cc1NS(=O)(=O)c1cccc(Br)c1 [Compound 36]			30	−33.9
CS(=O)(=O)Oc1cccc2cc(NS(=O)(=O)c3cccc(Br)c3)c(=O)oc12 [Compound 37, 3-[(3-Bromophenyl)sulfonylamino)]-2-oxochromen-8-yl methanesulfonate]			17	−22.6
O=c1oc2c(OS(=O)(=O)c3cccc(Br)c3)cccc2cc1NS(=O)(=O)c1cccnc1 [Compound 38, 2-Oxo-3-(3-pyridylsulfonylamino)chromen-8-yl 3-bromobenzenesulfonate]	67	-31.2		
O=c1oc2c(OS(=O)(=O)c3ccc([N+](=O)[O-])cc3)cccc2cc1NS(=O)(=O)c1cccc(C(F)(F)F)c1 [Compound 41, 2-Oxo-3-[[3-(trifluoromethyl)phenyl]sulfonylamino]-chromen-8-yl 4-nitrobenzenesulfonate]	172	-37.7		
O=c1oc2c(OS(=O)(=O)c3cccc(C(F)(F)F)c3)cccc2cc1NS(=O)(=O)c1ccc([N+](=O)[O-])cc1 [Compound 42, 3-[(4-Nitrophenyl)sulfonylamino]-2-oxochromen-8-yl 3-(trifluoromethyl)benzenesulfonate]	163	-35.5		
O=c1oc2c(OS(=O)(=O)c3cccs3)cccc2cc1NS(=O)(=O)c1cccc([N+](=O)[O-])c1 [Compound 43, 3-[(3-Nitrophenyl)sulfonylamino]-2-oxochromen-8-yl thiophene-2-sulfonate]	107	-30.3		
O=c1oc2c(OS(=O)(=O)c3cccc([N+](=O)[O-])c3)cccc2cc1NS(=O)(=O)c1cccs1 [Compound 44, 2-Oxo-3-(2-thienylsulfonylamino)chromen-8-yl 3-nitrobenzenesulfonate]	118	-31.5		
Nc1ccc(S(=O)(=O)Oc2cccc3cc(NS(=O)(=O)c4cccc(C(F)(F)F)c4)c(=O)oc23)cc1 [Compound 46, 2-Oxo-3-[[3-(trifluoromethyl)phenyl]sulfonylamino]-chromen-8-yl 4-aminobenzenesulfonate hydrochloride]	98	-37		
Nc1ccc(S(=O)(=O)Nc2cc3cccc(OS(=O)(=O)c4cccc(C(F)(F)F)c4)c3oc2=O)cc1 [Compound 47, 3-[(4-Aminophenyl)sulfonylamino]-2-oxochromen-8-yl 3-(trifluoromethyl)benzenesulfonate]	69	-40.1		
CCOC(=O)c1ccc(S(=O)(=O)Oc2cccc3cc(NS(=O)(=O)c4cccc([N+](=O)[O-])c4)c(=O)oc23)cc1 [Compound 48, Ethyl 4-[3-[(3-nitrophenyl)sulfonylamino]-2-oxochromen-8-yl]oxysulfonylbenzoate]	122	-34.9		
O=C(O)c1ccc(S(=O)(=O)Oc2cccc3cc(NS(=O)(=O)c4cccc([N+](=O)[O-])c4)c(=O)oc23)cc1 [Compound 49, 4-[3-[(3-Nitrophenyl)sulfonylamino]-2-oxochromen-8-yl]oxysulfonylbenzoic acid]	38	-36.1		
O=c1oc2c(OS(=O)(=O)c3cccc([N+](=O)[O-])c3)cccc2cc1NS(=O)(=O)c1cccc(C(F)(F)F)c1 [Compound 50, 2-Oxo-3-[[3-(trifluoromethyl)phenyl]sulfonylamino]-chromen-8-yl 3-nitrobenzenesulfonate]	163	-46.4		
O=c1oc2c(OS(=O)(=O)c3cccc(C(F)(F)F)c3)cccc2cc1NS(=O)(=O)c1cccc([N+](=O)[O-])c1 [Compound 51]			141	−36.5
O=c1oc2c(OS(=O)(=O)c3cccc(C(F)(F)F)c3)cccc2cc1NS(=O)(=O)c1ccc(-c2ccccc2)cc1 [Compound 52, 2-Oxo-3-[(4-phenylphenyl)sulfonylamino]chromen-8-yl 3-(trifluoromethyl)benzenesulfonate]	126	-35.5		
O=c1oc2c(OS(=O)(=O)c3cccc(Br)c3)cccc2cc1NS(=O)(=O)c1ccc(-c2ccccc2)cc1 [Compound 53, 2-Oxo-3-[(4-phenylphenyl)sulfonylamino]chromen-8-yl 3-bromobenzenesulfonate]	131	-32.3		
